Results: US9937183B2, “Antimicrobial compounds and methods of making and using the same” (priority 2013, dated 2018)
In brackets after ≈: the same amount, converted by molar mass. Read-outs that look alike come from different tables or passages of the source.

What was measured:
Assay type in all cases: cell-based
E. coli ATCC25922 = assay: MIC, microtiter-based liquid assay (CLSI); settings: Escherichia coli
E. coli 1705878 = assay: MIC, microtiter-based liquid assay (CLSI); settings: Escherichia coli, MDR strain
E. coli MG1655 parent = assay: MIC, microtiter-based liquid assay (CLSI); settings: Escherichia coli
E. coli CAG12184 TolC = assay: MIC, microtiter-based liquid assay (CLSI); settings: Escherichia coli, CAG12184TOLC
[1] = test system: S. pneumoniae 02J1175 Mef(A); assay: MIC, microtiter-based liquid assay (CLSI); settings: Streptococcus pneumoniae
S. aureus 11540 MRSA = assay: MIC, microtiter-based liquid assay (CLSI); settings: Staphylococcus aureus
K. pneumoniae 1705949 = assay: MIC, microtiter-based liquid assay (CLSI); settings: Klebsiella pneumoniae, MDR strain
K. pneumoniae 1705966 = assay: MIC, microtiter-based liquid assay (CLSI); settings: Klebsiella pneumoniae
A. baumannii 1705936 = assay: MIC, microtiter-based liquid assay (CLSI); settings: Acinetobacter baumannii, MDR strain
A. baumannii 1705943 = assay: MIC, microtiter-based liquid assay (CLSI); settings: Acinetobacter baumannii
P. aeruginosa ATCC27853 = assay: MIC, microtiter-based liquid assay (CLSI); settings: Pseudomonas aeruginosa
P. aeruginosa 1705886 = assay: MIC, microtiter-based liquid assay (CLSI); settings: Pseudomonas aeruginosa
P. aeruginosa 1705904 = assay: MIC, microtiter-based liquid assay (CLSI); settings: Pseudomonas aeruginosa, MDR strain
[2] = test system: E. faecium A6349 VanA + LNZ-R; assay: MIC, microtiter-based liquid assay (CLSI); settings: Enterococcus faecium
B. anthracis = assay: microbe, parasite or virus in culture; settings: Bacillus anthracis; for MIC50: read-out: B. anthracis MIC50; for MIC90: read-out: B. anthracis MIC90; for MIC: read-out: B. anthracis MIC Range
Y. pestis = assay: microbe, parasite or virus in culture; settings: for MIC50 / MIC90 / MIC: Yersinia pestis; for MIC50: read-out: Y. pestis MIC50; for MIC90: read-out: Y. pestis MIC90; for MIC: read-out: Y. pestis MIC Range
B. mallei = assay: microbe, parasite or virus in culture; settings: Burkholderia mallei; for MIC50: read-out: B. mallei MIC50; for MIC90: read-out: B. mallei MIC90; for MIC: read-out: B. mallei MIC Range
F. tularensis = assay: microbe, parasite or virus in culture; settings: Francisella tularensis; for MIC50: read-out: F. tularensis MIC50; for MIC90: read-out: F. tularensis MIC90; for MIC: read-out: F. tularensis MIC Range
B. pseudomallei = assay: microbe, parasite or virus in culture; settings: Burkholderia pseudomallei; for MIC50: read-out: B. pseudomallei MIC50; for MIC90: read-out: B. pseudomallei MIC90; for MIC: read-out: B. pseudomallei MIC Range
[3] = ATCC25922, read-out: MIC E. coli ATCC25922 + 50% HS
[4] = ATCC25922, read-out: MIC E. coli ATCC25922

SMILES | MIC (E. coli ATCC25922; [3]) | MIC (E. coli ATCC25922; [4]) | MIC (E. coli 1705878) | MIC (E. coli MG1655 parent) | MIC (E. coli CAG12184 TolC) | MIC [1] | MIC (S. aureus 11540 MRSA) | MIC (K. pneumoniae 1705949) | MIC (K. pneumoniae 1705966) | MIC (A. baumannii 1705936) | MIC (A. baumannii 1705943) | MIC (P. aeruginosa ATCC27853) | MIC (P. aeruginosa 1705886) | MIC (P. aeruginosa 1705904) | MIC [2] | MIC50 (Y. pestis) | MIC50 (B. mallei) | MIC90 (B. mallei) | MIC (B. mallei) | MIC50 (F. tularensis) | other results
C=C[C@@H](NCCCNC(=N)N)c1ccc(-n2cc3cc(-c4cc(CCC[C@H](C)N)cc(Cl)c4F)[nH]c3nc2=O)cc1 [Compound 11] | 0.5 mg/L | 0.25 mg/L (≈ 0.432 µM) | 0.5 mg/L (≈ 0.863 µM) | 0.25 mg/L (≈ 0.432 µM) | 0.25 mg/L (≈ 0.432 µM) | 2 mg/L (≈ 3.45 µM) | 0.5 mg/L (≈ 0.863 µM) | 8 mg/L (≈ 13.8 µM) | 1 mg/L (≈ 1.73 µM) | 1 mg/L (≈ 1.73 µM) | 0.25 mg/L (≈ 0.432 µM) | 4 mg/L (≈ 6.91 µM) | 4 mg/L (≈ 6.91 µM) | 8 mg/L (≈ 13.8 µM) | 4 mg/L | ≤ 0.03 mg/L | ≤ 0.03 mg/L | 0.12 mg/L (≈ 0.207 µM) | 0.03 to 0.25 mg/L (≈ 0.0518 to 0.432 µM) | 0.06 mg/L (≈ 0.104 µM) | MIC50 (B. anthracis): 0.25 mg/L (≈ 0.432 µM); MIC90 (B. anthracis): 0.5 mg/L (≈ 0.863 µM); MIC (B. anthracis): 0.12 to 0.5 mg/L (≈ 0.207 to 0.863 µM); MIC90 (Y. pestis): 0.12 mg/L (≈ 0.207 µM); MIC (Y. pestis): 0.03 to 0.5 mg/L (≈ 0.0518 to 0.863 µM); MIC90 (F. tularensis): 0.25 mg/L (≈ 0.432 µM); MIC (F. tularensis): 0.03 to 4 mg/L (≈ 0.0518 to 6.91 µM); MIC50 (B. pseudomallei): 1 mg/L (≈ 1.73 µM); MIC90 (B. pseudomallei): 4 mg/L (≈ 6.91 µM); MIC (B. pseudomallei): 0.25 to 8 mg/L (≈ 0.432 to 13.8 µM)
COC[C@H](N)CCCc1cc(Cl)c(F)c(-c2cc3cn(-c4ccc(CNCCCNC(=N)N)cc4)c(=O)nc3[nH]2)c1 [Compound 6] | 0.25 mg/L | 0.5 mg/L (≈ 0.857 µM) | 1 mg/L (≈ 1.71 µM) | 0.25 mg/L (≈ 0.429 µM) | 0.25 mg/L (≈ 0.429 µM) | 0.25 mg/L (≈ 0.429 µM) | 0.25 mg/L (≈ 0.429 µM) | 2 mg/L (≈ 3.43 µM) | 0.5 mg/L (≈ 0.857 µM) | 4 mg/L (≈ 6.86 µM) | 0.25 mg/L (≈ 0.429 µM) | 8 mg/L (≈ 13.7 µM) | 4 mg/L (≈ 6.86 µM) | 8 mg/L (≈ 13.7 µM) | 4 mg/L | 0.25 mg/L (≈ 0.429 µM) | ≤ 0.03 mg/L | 0.12 mg/L (≈ 0.206 µM) | 0.03 to 0.5 mg/L (≈ 0.0514 to 0.857 µM) | ≤ 0.03 mg/L | MIC50 (B. anthracis): 0.5 mg/L (≈ 0.857 µM); MIC90 (B. anthracis): 0.5 mg/L (≈ 0.857 µM); MIC (B. anthracis): 0.06 to 1 mg/L (≈ 0.103 to 1.71 µM); MIC90 (Y. pestis): > 16 mg/L; MIC90 (F. tularensis): 0.06 mg/L (≈ 0.103 µM); MIC (F. tularensis): 0.03 to 1 mg/L (≈ 0.0514 to 1.71 µM); MIC50 (B. pseudomallei): 8 mg/L (≈ 13.7 µM); MIC90 (B. pseudomallei): 16 mg/L (≈ 27.4 µM); MIC (B. pseudomallei): 1 to 32 mg/L (≈ 1.71 to 54.9 µM)
C=CC[C@H](NCCCNC(=N)N)c1ccc(-n2cc3cc(-c4cc(CCC[C@H](C)N)cc(Cl)c4F)[nH]c3nc2=O)cc1 [Compound 9] | 0.5 mg/L | 0.25 mg/L (≈ 0.421 µM) | 0.5 mg/L (≈ 0.843 µM) | 0.25 mg/L (≈ 0.421 µM) | 0.25 mg/L (≈ 0.421 µM) | 0.25 mg/L (≈ 0.421 µM) | 0.25 mg/L (≈ 0.421 µM) | 0.5 mg/L (≈ 0.843 µM) | 0.25 mg/L (≈ 0.421 µM) | 0.5 mg/L (≈ 0.843 µM) | 0.25 mg/L (≈ 0.421 µM) | 2 mg/L (≈ 3.37 µM) | 2 mg/L (≈ 3.37 µM) | 4 mg/L (≈ 6.74 µM) | 0.5 mg/L | – | – | – | – | – | –
NC[C@H]1O[C@H](O[C@H]2[C@H](O)[C@@H](O[C@H]3O[C@H](CO)[C@@H](O)[C@H](N)[C@H]3O)[C@H](N)C[C@@H]2N)[C@H](N)C[C@@H]1O [Tobramycin, reference compound] | 1 mg/L | 1 mg/L (≈ 2.14 µM) | 64 mg/L (≈ 137 µM) | 1 mg/L (≈ 2.14 µM) | 1 mg/L (≈ 2.14 µM) | 16 mg/L (≈ 34.2 µM) | 0.5 mg/L (≈ 1.07 µM) | > 128 mg/L | ≤ 0.25 mg/L | 8 mg/L (≈ 17.1 µM) | ≤ 0.25 mg/L | 0.5 mg/L (≈ 1.07 µM) | 0.5 mg/L (≈ 1.07 µM) | 128 mg/L (≈ 274 µM) | > 128 mg/L | – | – | – | – | – | –
CN(C)c1cc(NC(=O)CNC(C)(C)C)c(O)c2c1C[C@H]1C[C@H]3[C@H](N(C)C)C(O)=C(C(N)=O)C(=O)[C@@]3(O)C(O)=C1C2=O [Tigecycline, reference compound] | 0.25 mg/L | 0.125 mg/L (≈ 0.213 µM) | 0.5 mg/L (≈ 0.854 µM) | 0.25 mg/L (≈ 0.427 µM) | 0.125 mg/L (≈ 0.213 µM) | ≤ 0.06 mg/L | 0.25 mg/L (≈ 0.427 µM) | 1 mg/L (≈ 1.71 µM) | 0.5 mg/L (≈ 0.854 µM) | 2 mg/L (≈ 3.41 µM) | 0.125 mg/L (≈ 0.213 µM) | 8 mg/L (≈ 13.7 µM) | 8 mg/L (≈ 13.7 µM) | > 32 mg/L | ≤ 0.06 mg/L | – | – | – | – | – | –
C[C@H](NCCCNC(=N)N)c1ccc(-n2cc3cc(-c4cc(C5CCC(CN)CC5)cc(Cl)c4F)[nH]c3nc2=O)cc1 (stereo partly shown) [Compound 8] | 2 mg/L | 0.5 mg/L (≈ 0.843 µM) | 1 mg/L (≈ 1.69 µM) | 0.25 mg/L (≈ 0.421 µM) | 0.25 mg/L (≈ 0.421 µM) | 0.5 mg/L (≈ 0.843 µM) | 0.25 mg/L (≈ 0.421 µM) | 2 mg/L (≈ 3.37 µM) | 1 mg/L (≈ 1.69 µM) | 1 mg/L (≈ 1.69 µM) | 0.5 mg/L (≈ 0.843 µM) | 4 mg/L (≈ 6.74 µM) | 4 mg/L (≈ 6.74 µM) | 4 mg/L (≈ 6.74 µM) | 4 mg/L | 0.12 mg/L (≈ 0.202 µM) | ≤ 0.03 mg/L | 0.12 mg/L (≈ 0.202 µM) | 0.03 to 0.25 mg/L (≈ 0.0506 to 0.421 µM) | 0.06 mg/L (≈ 0.101 µM) | Y. pestis MIC50 (Y. pestis): 0.06 mg/L; MIC (Y. pestis): 0.03 to 0.5 mg/L (≈ 0.0506 to 0.843 µM); MIC (F. tularensis): 0.03 to 2 mg/L (≈ 0.0506 to 3.37 µM)
